The values below come from patent US10195156B2, “Compounds and compositions for intracellular delivery of agents” (ModernaTX, Inc., priority 2015, dated 2019).

The nature of data set [1]: pKa of nanoparticle compositions. It is filed as physicochemical.
Data set [2] deals with modified luciferase (Luc) expression. Kind of data set: Expression upon intramuscular administration of Luc mRNA and H10 mRNA formulations. Format: in vivo. The settings on record: 6 hours after intramuscular administration. How it is done: Sample formulations including both modified luciferase (Luc) mRNA and H10 mRNA were prepared and administered intramuscularly at day 1 and day 21 and the resulting expression and immunogenicity were evaluated simultaneously. Formulations including compounds according to formula (20-I) were prepared and administered at doses of 0.001 and 0.01 mpk (e.g., doses of 0.0005 mpk of a formulation including Luc mRNA and a formulation including H10 mRNA or doses of 0.005 mpk of a formulation including Luc mRNA and a formulation including H10 mRNA). As shown in Table 20-4, the total flux was higher upon administration of the second dose for each composition and at each dose level. Total flux was higher for the higher dose level.

A word on the pKa: it is the pH at which an ionisable group is half protonated. Take `CCCCCCCCCCCCN(CCCCCCCCCCCC)CCN(CCCCCCCCCCCC)CCN1CCN(CCN(CCCCCCCCCCCC)CCCCCC(=O)OCCCCC)CC1` [Compound 12, Pentyl 6-((2-(4-(2-((2-(didodecylamino)ethyl)(dodecyl)amino)ethyl)piperazin-1-yl)ethyl)(dodecyl)amino)hexanoate]: the pKa in data set [1] (Table 1, rows without footnote mark) worked out at 5.44; in data set [1] (Table 5, hEPO mRNA, 40:20:38.5:1.5 Lipid:DOPE:Chol:PEG-DMG), 5.444.
Turning to `CCCCCC=CCC=CCCCCCCCCC(CCCCCCCCC=CCC=CCCCCC)OC(=O)CCCN(C)C` (stereo not drawn) [MC3, heptatriaconta-6,9,28,31-tetraen-19-yl 4-(dimethylamino)butanoate, reference compound], the “Total flux (p/s) 0.001 mpk Dose 1” value in data set [2] (0.001 mpk, Dose 1) was 1.23E+06 p/s. The “Total flux (p/s) 0.001 mpk Dose 2” value in data set [2] (0.001 mpk, Dose 2) is listed as 1.09E+06 p/s. Besides, the “Total flux (p/s) 0.01 mpk Dose 1” value in data set [2] (0.01 mpk, Dose 1) came out at 1.79E+07 p/s. Moreover, the “Total flux (p/s) 0.01 mpk Dose 2” value in data set [2] (0.01 mpk, Dose 2) stood at 3.13E+07 p/s.
